Laboratory results as given in US20090155903A1, “PHARMACEUTICAL COMPOSITION AND METHOD” (Myriad Genetics, Incorporated, priority 2004, published 2009).

Key:
COX2 = target: T1, COX2 (Homo sapiens, UniProt P35354); experiment: COX inhibitor screening kit (Cayman Chemical), COX2; format: biochemical; details: 100 μM compound
T1 construct: purchased Cayman Chemical, Ann Arbor, Mich; 560131
T1 sequence (P35354 18-604): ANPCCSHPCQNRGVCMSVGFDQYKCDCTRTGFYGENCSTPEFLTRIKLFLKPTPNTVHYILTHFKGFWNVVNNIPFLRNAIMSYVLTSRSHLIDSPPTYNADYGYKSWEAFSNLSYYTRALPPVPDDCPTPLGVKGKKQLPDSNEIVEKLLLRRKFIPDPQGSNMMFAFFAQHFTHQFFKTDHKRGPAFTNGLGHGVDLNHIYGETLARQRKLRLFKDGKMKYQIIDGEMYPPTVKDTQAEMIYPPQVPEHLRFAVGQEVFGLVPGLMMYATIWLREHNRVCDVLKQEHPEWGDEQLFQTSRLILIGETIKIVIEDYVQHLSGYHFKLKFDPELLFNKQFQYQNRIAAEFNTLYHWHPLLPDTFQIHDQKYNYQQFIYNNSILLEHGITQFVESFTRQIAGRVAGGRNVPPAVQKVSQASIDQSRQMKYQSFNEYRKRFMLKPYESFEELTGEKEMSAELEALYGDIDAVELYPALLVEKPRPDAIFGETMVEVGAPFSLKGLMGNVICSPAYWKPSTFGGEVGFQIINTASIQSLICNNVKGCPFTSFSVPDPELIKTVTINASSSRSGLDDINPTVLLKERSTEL
Method: (§1) The invention is based on the fact that the inventors have discovered that compounds of the formulae above lower Aβ42 Levels in in vitro APP processing assays. Furthermore, the compounds, in general, have negligible levels of COX inhibition and therefore are thought to essentially be devoid of the deleterious side-effects associated with COX inhibition. […] Preferred compounds of the formulae for use in the invention are those that have little or negligible COX1 and/or COX2 inhibition at 1 μM, more preferred are those that little or negligible COX1 and/or COX2 inhibition at 10 μM, and more preferred are those that little or negligible COX1 and/or COX2 inhibition at 100 μM compound. COX1 and COX2 inhibition can be determined with a COX inhibitor screening kit from e.g., Cayman Chemical, Ann Arbor, Mich. (Cat. #560131).
(§2) The invention is related to the inventors' discovery that compounds of Formula I-Va lower Aβ42 levels in APP processing assays. Furthermore, compounds of Formula I-Va, in general, have negligible levels of COX inhibition and therefore are thought to essentially be devoid of the deleterious side-effects associated with COX inhibition. […] Preferred compounds of Formula I-Va for use in the invention are those that have little or negligible COX1 and/or COX2 inhibition at 1 μM, more preferred are those that have little or negligible COX1 and/or COX2 inhibition at 10 μM, and more preferred are those that have little or negligible COX1 and/or COX2 inhibition at 100 μM compound. COX1 and COX2 inhibition can be determined with a COX inhibitor screening kit from e.g., Cayman Chemical, Ann Arbor, Mich. (Cat. #560131). […] Representative compounds found to lower Aβ42 levels using the previously described assay by at least 50% of DMSO control at concentrations ranging from 30-80 μM include compounds 1, 11, 21, 22, 24, 25, 26, 38, 43, 64, 67, 98, 100, and 102. Particularly preferred compounds of Formula I-Va for use in the methods and embodiments of the invention include those in Tables 2-7 below.

COX1 = target: T2, COX1 (Ovis aries, UniProt P05979); experiment: COX inhibitor screening kit (Cayman Chemical), COX1; format: biochemical; details: 100 μM compound
T2 construct: purchased Cayman Chemical, Ann Arbor, Mich; 560131
T2 sequence (P05979 25-600): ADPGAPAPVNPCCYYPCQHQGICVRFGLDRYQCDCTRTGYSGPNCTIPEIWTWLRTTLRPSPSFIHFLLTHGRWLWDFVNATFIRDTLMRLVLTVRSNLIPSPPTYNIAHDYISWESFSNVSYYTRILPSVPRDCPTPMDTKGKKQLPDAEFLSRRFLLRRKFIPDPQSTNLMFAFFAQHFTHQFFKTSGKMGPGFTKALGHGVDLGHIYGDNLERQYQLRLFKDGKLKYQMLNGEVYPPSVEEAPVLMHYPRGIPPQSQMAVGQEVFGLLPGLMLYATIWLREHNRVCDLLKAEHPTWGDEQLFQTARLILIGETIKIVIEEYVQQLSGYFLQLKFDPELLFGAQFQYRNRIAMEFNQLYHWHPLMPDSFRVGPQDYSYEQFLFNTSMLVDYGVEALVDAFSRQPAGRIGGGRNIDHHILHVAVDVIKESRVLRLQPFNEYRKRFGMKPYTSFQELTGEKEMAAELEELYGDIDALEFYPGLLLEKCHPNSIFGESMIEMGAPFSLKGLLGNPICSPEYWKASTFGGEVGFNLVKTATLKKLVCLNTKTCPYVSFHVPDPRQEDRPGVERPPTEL
Method: as §1, §2

[1] = clinical trials; rofecoxib at 25 mg daily; cited from earlier work
[2] = patients with mild cognitive impairment; 4.5% for placebo; cited from earlier work

SMILES	inhibition of COX2 (COX2)	inhibition of COX1 (COX1)	efficacy for treating AD [1]	patients who developed AD [2] [%]
Cc1c(CC(=O)O)c2ccccc2n1C(=O)c1ccc(OC(F)(F)F)cc1 [Compound 10, 1-(4-trifluoromethoxybenzoyl)-2-methylindole-3-acetic acid]	not significantly inhibit	not significantly inhibit	–	–
Cc1c(CC(=O)O)c2ccccc2n1Cc1ccc(Br)cc1 [Compound 19, 1-(4-bromobenzyl)-2-methylindole-3-acetic acid]	not significantly inhibit	not significantly inhibit	–	–
O=C(O)c1cc([N+](=O)[O-])ccc1NCc1ccc(Cl)c(Cl)c1 [Compound 40, 2-(3,4-dichlorobenzylamino)-5-nitrobenzoic acid]	not significantly inhibit	not significantly inhibit	–	–
O=C(O)c1cc([N+](=O)[O-])ccc1NCc1cccc(Cl)c1 [Compound 43, 2-(3-chlorobenzylamino)-5-nitrobenzoic acid]	not significantly inhibit	not significantly inhibit	–	–
COc1ccc(-c2cccc(CC(=O)O)c2)cc1 [Compound 72, (4′-Methoxy-biphenyl-3-yl)-acetic acid]	not significantly inhibit	not significantly inhibit	–	–
O=C(O)c1cc2cc(OCc3ccccc3)ccc2n1Cc1ccc(C(F)(F)F)cc1 [Compound 97, 5-benzyloxy-1-(4-trifluoromethylbenzyl)-1H-indole-2-carboxylic acid]	not significantly inhibit	not significantly inhibit	–	–
COc1ccc2cc([C@H](C)C(=O)O)ccc2c1 [Naproxen]	–	–	failed to show efficacy	–
CS(=O)(=O)c1ccc(C2=C(c3ccccc3)C(=O)OC2)cc1 [rofecoxib]	–	–	failed to show efficacy	6.4
